The values that follow come from BindingDB's records for doi:10.1016/S0960-894X(01)80136-0 (1994).

The nature of this experiment: Apparent inhibition constant of the FKBP […] isomerase (PPIase) activity.

On to `CC1(C)COC(=O)CCCCCCCCCOC(=O)[C@@H]2CCCCN2C(=O)C1=O`, for which the Ki is 30 µM.

Turning to `CC1(C)COC(=O)CCCCCCCCCCCCCCCOC(=O)C2CCCCN2C(=O)C1=O` (stereo not given) [7,7-Dimethyl-icosahydro-9,26-dioxa-4a-aza-benzocyclopentacosene-5,6,10,27-tetraone], the Ki worked out at 11000 µM.

For `CC1(C)COC(=O)CCCOC(=O)C2CCCCN2C(=O)C1=O` (stereo not given) [7,7-Dimethyl-octahydro-9,14-dioxa-4a-aza-benzocyclotridecene-5,6,10,15-tetraone], the Ki amounted to 2900 µM.

For `CC1(C)COC(=O)CCCCCCCCCOC(=O)C2CCCCN2C(=O)C1=O` (stereo not given) [7,7-Dimethyl-tetradecahydro-9,20-dioxa-4a-aza-benzocyclononadecene-5,6,10,21-tetraone], the Ki was determined as 90 µM.

`CC1(C)COC(=O)CCCCCCCCCCC(CCC2CCCCC2)OC(=O)C2CCCCN2C(=O)C1=O` (stereo not given) [21-(2-Cyclohexyl-ethyl)-7,7-dimethyl-hexadecahydro-9,22-dioxa-4a-aza-benzocyclohenicosene-5,6,10,23-tetraone]: the Ki stood at 190 µM.
